For orientation: IC50 means the concentration that gives 50% inhibition.

IC50 data for 1 compound are collected here from ChEMBL document CHEMBL5726679, “Cycloalkane derivatives” (2017).

This test is described as follows: Electrophysiological Assay: Current record was obtained by an automated patch clamp system “IonWorks Quattro (Molecular Devices Corporation)” in Population Patch Clamp mode. The operation was conducted in accordance with the operating procedure of the system. A Dulbecco's phosphate buffer containing calcium and magnesium (Sigma) was used as an extracellular fluid, and a low C1-buffer (100 mM K-gluconate, 40 mM KCl, 3.2 mM MgCl2, 5 mM EGTA, 5 mM Hepes, pH 7.3) was used as an intracellular fluid. A test compound was dissolved in dimethylsulfoxide (DMSO) to prepare a 30 mM stock solution, so as to produce 4-fold serial dilutions with the extracellular fluid for attaining a DMSO concentration of 0.3% in measurement.The hNav 1.7/β1/β2 cells cultured to a 70-80% confluent state in a T150 flask (Sumilon) were washed with PBS and subsequently with versene (Invitrogen Corp.), and collected by allowing to react with 0.05% trypsin (Invitrogen Corp.) at 37° C. for 3 minutes. After washing with a culture medium, the resultant cells were suspended in an extracellular fluid at a concentration of […] so as to be used for the measurement. The cell membrane was perforated by using an intracellular fluid including 100 μg/ml amphotericin B (Sigma). It is filed as cell-based. For orientation: Patch clamp records ionic current or voltage across a cell membrane.

The structures appear in SMILES notation.

As for `Cn1nccc1[C@H]1CCC[C@@H]1Oc1cc(F)c(S(=O)(=O)Nc2nncs2)cc1Cl` (relative stereo), the concentration for half-maximal inhibition (IC50) was determined as 280 nM.
